Assay results published in patent US20240287022A1 (Merck Sharp & Dohme LLC, priority 2021, published 2024).

Biological target: recombinant IL4I1 (Homo sapiens (Human), UniProt Q96RQ9)
Assay: IL4I1 Enzymatic Assay (Amplex Red/HRP coupled H2O2 detection)
Assay type: biochemical
Settings: 1 nM IL4I1, 1 mM each Phe/Tyr/Trp, four-hour pre-incubation, 120 minutes reaction, top compound concentration of 10000 nM
Description: Interleukin 4 inducible protein 1 (IL4I1) is an L-amino oxidase that catalyzes the oxidation of aromatic residues (Phe, Trp and Tyr): L-amino acid+H2O+O2→2-oxo acid+NH3+H2O2. Equal molar of H2O2 and the corresponding alpha-ketoacid are produced when IL4I1 and substrate are added. In this assay, the hydrogen peroxide generated by IL4I1 are then detected through a coupled reaction with Amplex Red (10-acetyl-3,7-dihydroxyphenoxazine) and […] (HRP) to produce Resorufin product that could be detected in the form of fluorescence signals. The assessment of the inhibitory effect of small molecules (EC50) on IL4I1 is measured by the effectiveness of the compounds to inhibit the production of H2O2.
Using this assay, the potency (EC50) of each compound was determined from a ten-point (1:3 serial dilution; top compound concentration of 10000 nM) titration curve using the following outlined procedure. To each well of a black flat-bottom Greiner (Cat #781076) 384 well-plate, 25 nL of compound (0.1% DMSO in final assay volume of 25 μL) was dispensed, followed by the addition of 12.5 μL of 1× assay buffer (50 mM Hepes 7.0 and 0.005% Tween20 (Sigma, Cat #P8341; low peroxide grade)) containing 2 nM of recombinant IL4I1 (R&D Systems, Cat #5684-AO-020). Plates were placed in an ambient temperature humidified chamber for a four-hour pre-incubation with compound. Subsequently, each reaction was initiated by the addition of 12.5 μL 1× assay buffer containing 2 mM of each aromatic amino acids (Phe/Tyr/Trp), 0.1 mM Amplex Red and 2 U/mL of HRP. The final reaction in each well of 25 μL consists of 1 nM of IL4I1, 1 mM of each residues (Phe, Tyr and Trp), 0.05 mM Amplex Red and 1 U/mL of HRP. It should be noted that the concentrations of Amplex Red and HRP used here are in excess such that the conversion of H2O2 to Resorufin product occurs instantaneously and non-rate limiting. Reactions were allowed to proceed for 120 minutes followed by fluorescence readout on a Spectramax with the following set parameters: 544 nm excitation/590 nm emission, 570 nm cutoff (EnVision is an alternative reader). Dose-response curves were generated by plotting percent effect (% product conversion; Y-axis) vs. Log10 compound concentrations (X-axis). EC50 values were calculated using a non-linear regression, four-parameters sigmoidal dose-response model.

Chain of recombinant IL4I1 (Q96RQ9 22-567): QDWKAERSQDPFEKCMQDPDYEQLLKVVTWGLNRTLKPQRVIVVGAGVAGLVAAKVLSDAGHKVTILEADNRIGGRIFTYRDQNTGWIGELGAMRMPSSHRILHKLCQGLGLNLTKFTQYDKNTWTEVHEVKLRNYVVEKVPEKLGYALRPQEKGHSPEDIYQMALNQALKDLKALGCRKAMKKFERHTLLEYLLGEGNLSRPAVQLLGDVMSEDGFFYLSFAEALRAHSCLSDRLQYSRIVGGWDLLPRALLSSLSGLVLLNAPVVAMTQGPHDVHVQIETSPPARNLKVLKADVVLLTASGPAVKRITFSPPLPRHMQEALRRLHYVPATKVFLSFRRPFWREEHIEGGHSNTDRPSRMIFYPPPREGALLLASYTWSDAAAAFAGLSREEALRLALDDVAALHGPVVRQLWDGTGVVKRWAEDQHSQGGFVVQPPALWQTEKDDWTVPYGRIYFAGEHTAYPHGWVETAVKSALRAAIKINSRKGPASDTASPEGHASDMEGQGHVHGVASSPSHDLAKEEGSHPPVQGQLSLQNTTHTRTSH

EC50 [nM]	Compound
1.3	O=c1[nH]c2ccccc2cc1Cc1ccc(OCC2CC2)nc1 [Example 88, 3-((6-(cyclopropylmethoxy)pyridin-3-yl)methyl)quinolin-2(1H)-one]
1.2	Cn1ncc2cc(Cc3cc4ccccc4[nH]c3=O)ccc21 [Example 153, 3-((1-methyl-1H-indazol-5-yl)methyl)quinolin-2(1H)-one]
588	COC(=O)NCc1nnc(Cc2cc3ccccc3[nH]c2=O)o1 [Example 43, methyl ((5-((2-oxo-1,2-dihydroquinolin-3-yl)methyl)-1,3,4-oxadiazol-2-yl)methyl)carbamate]
126	O=c1[nH]c2ccccc2cc1Cc1nnc(Cc2ccc(Br)cc2)o1 [Example 23, 3-((5-(4-bromobenzyl)-1,3,4-oxadiazol-2-yl)methyl)quinolin-2(1H)-one]
15.7	C[C@]1(c2ccc(Cc3cc4ccccc4[nH]c3=O)cc2)CCC(=O)N1 (single isomer, unassigned) [Example 183A, (S or R)-3-(4-(2-methyl-5-oxopyrrolidin-2-yl)benzyl)quinolin-2(1H)-one]
5.1	Cc1nc(C)c(Cc2cc3ccccc3[nH]c2=O)s1 [Example 134, 3-((2,4-dimethylthiazol-5-yl)methyl)quinolin-2(1H)-one]
10.2	O=c1[nH]c2ccccc2cc1Cc1nnc(-c2ncn3ccccc23)o1 [Example 16, 3-((5-(imidazo[1,5-a]pyridin-1-yl)-1,3,4-oxadiazol-2-yl)methyl)quinolin-2(1H)-one]
7	O=c1[nH]c2ccncc2cc1Cc1ccc(C2(O)CCC2)cc1 [Example 113, 3-(4-(1-hydroxycyclobutyl)benzyl)-1,6-naphthyridin-2(1H)-one]
3.7	O=C1CCc2cc(Cc3cc4cc(F)ccc4[nH]c3=O)ccc2N1 [Example 123, 6-fluoro-3-((2-oxo-1,2,3,4-tetrahydroquinolin-6-yl)methyl)quinolin-2(1H)-one]
18.6	O=c1[nH]c2ccccc2cc1Cc1ccc2nn[nH]c2c1 [Example 132, 3-((1H-benzo[d][1,2,3]triazol-6-yl)methyl)quinolin-2(1H)-one]
2.3	N#CC1(c2ccc(Cc3cc4ccccc4[nH]c3=O)cc2)COC1 [Example 147, 3-(4-((2-oxo-1,2-dihydroquinolin-3-yl)methyl)phenyl)oxetane-3-carbonitrile]
1.7	N#CC1(c2cccc(Cc3cc4cnccc4[nH]c3=O)c2)CC1 [Example 116, 1-(3-((2-oxo-1,2-dihydro-1,6-naphthyridin-3-yl)methyl)phenyl)cyclopropane-1-carbonitrile]
125	O=c1[nH]c2ccccc2cc1Cc1nnc(-c2cc(C(F)(F)F)[nH]n2)o1 [Example 28, 3-((5-(5-(trifluoromethyl)-1H-pyrazol-3-yl)-1,3,4-oxadiazol-2-yl)methyl)quinolin-2(1H)-one]
4.9	CC(C)(O)Cc1ccc(Cc2cc3ccccc3[nH]c2=O)cc1 [Example 179, 3-(4-(2-Hydroxy-2-methylpropyl)benzyl)quinolin-2(1H)-one]
9.8	CC1(Nc2ccc(Cc3cc4ccccc4[nH]c3=O)cc2)CNC1 [Example 58, 3-(4-((3-methylazetidin-3-yl)amino)benzyl)quinolin-2(1H)-one]
2.1	O=c1[nH]c2ccncc2cc1Cc1cccc(OC(F)(F)F)c1 [Example 117, 3-(3-(trifluoromethoxy)benzyl)-1,6-naphthyridin-2(1H)-one]
653	O=c1[nH]c2ccccc2cc1Cc1nnc(C2(C(F)(F)F)CC2)o1 [Example 34, 3-((5-(1-(trifluoromethyl)cyclopropyl)-1,3,4-oxadiazol-2-yl)methyl)quinolin-2(1H)-one]
532	COc1ccc2[nH]c(=O)c(Cc3ccccc3)cc2c1 [Example 172, 3-benzyl-6-methoxyquinolin-2(1H)-one]
1.7	N#Cc1cnn2ccc(Cc3cc4ccccc4[nH]c3=O)cc12 [Example 92, 5-((2-oxo-1,2-dihydroquinolin-3-yl)methyl)pyrazolo[1,5-a]pyridine-3-carbonitrile]
10000	Cc1c(Cc2ccccc2)c(=O)[nH]c2ccccc12 [Example 164, 3-Benzyl-4-methylquinolin-2(1H)-one]

EC50 [nM]	Compound
6.6	O=C1COc2c(Cc3cc4ccccc4[nH]c3=O)cccc2N1 [Example 122, 8-((2-oxo-1,2-dihydroquinolin-3-yl)methyl)-2H-benzo[b][1,4]oxazin-3(4H)-one]
8.7	O=c1[nH]c2ccccc2cc1Cc1ccc(OC2CCOCC2)nc1 [Example 85, 3-((6-((tetrahydro-2H-pyran-4-yl)oxy)pyridin-3-yl)methyl)quinolin-2(1H)-one]
11.5	CC1(c2ccc(Cc3cc4ccccc4[nH]c3=O)cc2)CNC1 [Example 79, 3-(4-(3-methylazetidin-3-yl)benzyl)quinolin-2(1H)-one]
194	Cc1noc(C)c1Cc1nnc(Cc2cc3ccccc3[nH]c2=O)o1 [Example 24, 3-((5-((3,5-dimethylisoxazol-4-yl)methyl)-1,3,4-oxadiazol-2-yl)methyl)quinolin-2(1H)-one]
81.4	C[C@@H]1Oc2ccc(Cc3cc4ccccc4[nH]c3=O)cc2NC1=O (stereo in doubt) [Example 142B, 2-methyl-6-((2-oxo-1,2-dihydroquinolin-3-yl)methyl)-2H-benzo[b][1,4]oxazin-3(4H)-one]
0.9	O=c1[nH]c2ccc(Cc3cc4ccccc4[nH]c3=O)cc2o1 [Example 121, 6-((2-oxo-1,2-dihydroquinolin-3-yl)methyl)benzo[d]oxazol-2(3H)-one]
18.9	CC1(CO)CN(c2ccc(Cc3cc4ccccc4[nH]c3=O)cn2)C(=O)O1 (racemic) [Example 50, rac-5-(hydroxymethyl)-5-methyl-3-(5-((2-oxo-1,2-dihydroquinolin-3-yl)methyl)pyridin-2-yl)oxazolidin-2-one]
3.7	NS(=O)(=O)c1c(Cl)cc(Cc2cc3ccccc3[nH]c2=O)cc1Cl [Example 71, 2,6-dichloro-4-((2-oxo-1,2-dihydroquinolin-3-yl)methyl)benzenesulfonamide]
6.7	CC1CC(=O)NC1c1ccc(Cc2cc3ccccc3[nH]c2=O)cc1 (stereo not shown) [Example 45, 3-(4-(3-methyl-5-oxopyrrolidin-2-yl)benzyl)quinolin-2(1H)-one]
10.6	O=c1[nH]c2ccccc2cc1Cc1cc(F)c2c(c1)CNC2 [Example 69, 3-((7-fluoroisoindolin-5-yl)methyl)quinolin-2(1H)-one]
4.5	O=c1[nH]c2ccccc2cc1Cc1cnc(N2CCCCC2)s1 [Example 137, 3-((2-(piperidin-1-yl)thiazol-5-yl)methyl)quinolin-2(1H)-one]
2	CC(=O)NCc1ccc(Cc2cc3ccccc3[nH]c2=O)cc1Cl [Example 66, N-(2-chloro-4-((2-oxo-1,2-dihydroquinolin-3-yl)methyl)benzyl)acetamide]
615	O=c1[nH]c2ccccc2cc1Cc1nnc(Cc2cccnn2)o1 [Example 25]
29.1	CC1(O)CN(c2ccc(Cc3cc4ccccc4[nH]c3=O)cn2)C(=O)O1 (racemic) [Example 51, rac-5-hydroxy-5-methyl-3-(5-((2-oxo-1,2-dihydroquinolin-3-yl)methyl)pyridin-2-yl)oxazolidin-2-one]
7.2	Cn1c(=O)c(Cc2cccc(OC(F)(F)F)c2)cc2ccccc21 [Example 144, 1-methyl-3-(3-(trifluoromethoxy)benzyl)quinolin-2(1H)-one]
19.9	CC1(N)CN(c2ccc(Cc3cc4ccccc4[nH]c3=O)cc2)C1 [compound 60, 3-(4-(3-amino-3-methylazetidin-1-yl)benzyl)quinolin-2(1H)-one]
466	O=c1[nH]c2cnccc2cc1Cc1cccc(OC(F)(F)F)c1 [Example 103, 3-(3-(trifluoromethoxy)benzyl)-1,7-naphthyridin-2(1H)-one]
15.5	O=C(c1ccc(Cc2cc3ccccc3[nH]c2=O)cc1)N1CC(O)C1 [Example 1, 3-(4-(3-hydroxyazetidine-1-carbonyl)benzyl)quinolin-2(1H)-one]
13.7	Cc1noc(C(C)C)c1-c1nnc(Cc2cc3ccccc3[nH]c2=O)o1 [Example 15, 3-((5-(5-isopropyl-3-methylisoxazol-4-yl)-1,3,4-oxadiazol-2-yl)methyl)quinolin-2(1H)-one]
1.4	O=c1[nH]c2ccccc2cc1Cc1ccc2scnc2c1 [Example 156, 3-(benzo[d]thiazol-5-ylmethyl)quinolin-2(1H)-one]
